Measured values published in US6562759B1, “Substituted phenyl uracils” (Bayer Aktiengesellschaft, priority 1999, dated 2003).

How the values were obtained:
weeds [1] = assay: Pre-emergence Test; type: in vivo; conditions: soil sprayed about 24 hours after sowing, rated after three weeks vs untreated control
Experimental: Pre-emergence Test Solvent: 5 parts by weight of acetone Emulsifier 1 part by weight of alkylaryl polyglycol ether To produce a suitable preparation of active compound, 1 part by weight of active compound is mixed with the stated amount of solvent, the stated amount of emulsifier is added and the concentrate is diluted with water to the desired concentration. Seeds of the test plants are sown in normal soil. After about 24 hours, the soil is sprayed with the preparation of active compound such that the particular amount of active compound desired is applied per unit area. The concentration of the spray liquor is chosen so that the particular amount of active compound desired is applied in 1000 litres of water per hectare. After three weeks, the degree of damage to the plants is rated in % damage in comparison to the development of the untreated control. The figures denote: 0%=no effect (like untreated control) 100%=total destruction

weeds [2] = assay: Post-emergence Test; type: in vivo; conditions: test plants of height 5-15 cm sprayed, rated after three weeks vs untreated control
Experimental: Post-emergence Test Solvent: 5 parts by weight of acetone Emulsifier: 1 part by weight of alkylaryl polyglycol ether To produce a suitable preparation of active compound, 1 part by weight of active compound is mixed with the stated amount of solvent, the stated amount of emulsifier is added and the concentrate is diluted with water to the desired concentration. Test plants which have a height of 5-15 cm are sprayed with the preparation of active compound such that the particular amounts of active compound desired are applied per unit area. The concentration of the spray liquor is chosen so that the particular amounts of active compound desired are applied in 1000 l of water/ha. After three weeks, the degree of damage to the plants is rated in % damage in comparison to the development of the untreated control. The figures denote: 0%=no effect (like untreated control) 100%=total destruction

Compound: Cn1c(C(F)(F)F)cc(=O)n(-c2cc(C3OCCO3)c(C#N)cc2F)c1=O [Preparation Example 1, 1-[4-cyano-2-fluoro-5-(1,3-dioxolan-2-yl)-phenyl]-3,6-dihydro-2,6-dioxo-3-methyl-4-trifluoromethyl-1(2H)-pyrimidine]
- activity against weeds (degree of damage to the plants) (weeds [1]): very strong activity against weeds
- activity against weeds (degree of damage to the plants) (weeds [2]): very strong activity against weeds
